Patent US20100239646A1, “Sublingual methotrexate and methotrexate patches” (priority 2009, published 2010)
One block for each compound: values may come before it.

Experiments:
aldehyde oxidase = assay: Aldehyde oxidase mediated oxidation of methotrexate
Text: (§1) In order to unravel the mechanism of methotrexate non-responsiveness M. G. Nair investigated the metabolism of methotrexate and its potential deactivation pathways. […] 3; 29-34 (1996)].
The aldehyde oxidase mediated oxidation of methotrexate vs. certain metabolically inert antifolates was investigated by M. Gopal Nair. [Med. Chem. Research. 9:176-185, 1999].

[1] = cited from earlier work
[2] = women; sublingual versus oral solid dosage unit; cited from earlier work
[3] = oral dosage form; cited from earlier work
[4] = cited from earlier work; remark: listed apart in the source
[5] = Absorption of oral methotrexate in a group of arthritic patients (Example-1); type: in vivo, human; details: oral dosage form
Procedure: If 10 mg of the drug is given by the oral route only 2.0 mg is absorbed. If the optimal therapeutic dosage is tailored based on this low absorption, then the therapeutically effective dose without manifestation of significant toxic effects would be an effective accumulation of 2.0 mg of the drug in the plasma. It is reasonable to assume for antifolates that an increase of 50% of drug level in plasma relative to the accepted safe level would lead to disastrous toxic consequences including severe bone marrow depression. Therefore an increase of bioavailability from 20 to 30 percent in this case would effectively increase drug concentration by 50% in the plasma. The 10 percent increase in Bioavailability may well be envisioned by slight pH changes in the gut of patients who may be taking antacids, or medicine to modulate acid secretions, taking other medications or unknown factors. The present invention addresses this very crucial safety issues and provides a means to stabilize drug concentration in plasma to predictable levels by replacing oral dosage form of methotrexate with the sublingual dosage form, the absorption of which is independent of the biochemical pharmacology of human gut.

[6] = tested on: patients with rheumatoid arthritis; assay: Conventional therapy of rheumatoid arthritis with methotrexate (Rheumatrex); type: in vivo, human
Text: as §1

SMILES: CN(Cc1nc2c(N)nc(N)nc2[nH]c1=O)c1ccc(C(=O)N[C@@H](CCC(=O)O)C(=O)O)cc1 [7-hydroxymethotrexate]
antifolate activity of the oxidation product (aldehyde oxidase): inactive

SMILES: Nc1nc(=O)c2c([nH]1)NCC(CNc1ccc(C(=O)N[C@@H](CCC(=O)[O-])C(=O)[O-])cc1)N2C=O.[Ca+2] (stereo partly shown) [Calcium folinate]
time to improvement of odynophagia ([1]; 15 mg orally four times a day after methotrexate overdose): ≤ 24 h

SMILES: C[C@]12CC[C@@H]3c4ccc(O)cc4CC[C@H]3[C@@H]1CC[C@@H]2O [estradiol]
share of the oral dose needed by the sublingual route to achieve the same bioavailability [2]: 20-25%

absorption [5]: 20%
SMILES: CN(Cc1cnc2nc(N)nc(N)c2n1)c1ccc(C(=O)N[C@@H](CCC(=O)O)C(=O)O)cc1 [methotrexate]
toxic effects of the incorrect dose ([1]; 60 mg weekly instead of 15 mg weekly, oral tablets, rheumatoid arthritis patient): odynophagia, dysphagia and oesophagitis
severe unwanted effects ([1]; weekly dose taken in error daily or on several days each week): neutropenia, hepatotoxicity and bone marrow suppression
theoretical bioavailability [3]: 20-80%
solubility [4]: pH dependent
percentage of patients who were methotrexate non-responders [6]: 40%
drug related toxicity ([6]; some patients): elevation of liver enzymes
